Test system: uric acid value of mouse serum
Experiment: Lowering of Uric Acid Value of Mouse Serum
Type: in vivo
Settings: male ICR mice, 0.3 mg/kg into the stomach
Procedure: Lowering of Uric Acid Value of Mouse Serum
A sample suspended in 0.5% aqueous hydroxypropyl methyl cellulose (HPMC) solution was forcibly administered into the stomach of 4 to 6 week-old male ICR mice (4 per group) in a dose of 0.3 mg/kg using an oral sound probe. At 2 and 6 hours after the administration of the sample, mice were anesthetized with halothane. Blood samples were taken from both carotid arteries and the mice were exsanguinated. The blood was stood at room temperature for 20-30 minutes and centrifuged at 2000×g for 15 minutes to give serum. The uric acid value was measured using a uric acid measurement kit (manufactured by Wako Pure Chemicals Co.) by phosphotungstic acid method. The obtained values were applied to the following formula to give uric acid value decrease percentage at 2 and 6 hours after the administration of the sample.
Uric acid value decrease (%)=(1-average uric acid value of group administered with sample/average uric acid value of group administered with HPMC)×100

## Oc1ncnc2[nH]ncc12 [allopurinol]
2 hours after administration
  Uric acid value decrease (%) at 2 hours: 33%
6 hours after administration
  Uric acid value decrease (%) at 6 hours: 14%

— patent US6015829A, “1-phenylpyrazole compounds and medicinal application thereof” (Yoshitomi Pharmaceutical Industries, ltd., priority 1996, dated 2000)
